Results from ChEMBL document CHEMBL1201862, “PubChem BioAssay data set” (2004).
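Five compound concentrations were applied to cells in 96-well plates for 48 hours; endpoints were derived by simple linear interpolation of the resulting dose-response curve. GI50 = concentration required for 50% inhibition of growth.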 Active and inactive are the calls of the source. No stated cut-off is given here; in the data, active = GI50 up to about 1.1 µM and inactive = higher.

How the values were obtained:
Test in all cases: NCI tumour cell line growth inhibition, 48 h
[1] = system: BT-549
[2] = system: COLO 205
[3] = system: DU-145
[4] = system: HCT-116
[5] = system: HOP-92
[6] = system: IGROV-1
[7] = system: KM12
[8] = system: M14
[9] = system: MCF7
[10] = system: MDA-MB-231
[11] = system: Malme-3M
[12] = system: NCI-H522
[13] = system: NCI/ADR-RES
[14] = system: OVCAR-3
[15] = system: RPMI-8226
[16] = system: SF-268
[17] = system: SF-295
[18] = system: SN12C
[19] = system: UO-31
[20] = system: HCC 2998

Measured: GI50

CO[C@@H]1[C@H](O)CC[C@]2(CO2)[C@H]1[C@@]1(C)O[C@@H]1CC=C(C)C
inactive: [1] > 200 µM | [2] 152 µM | [3] 140 µM | [4] 84.3 µM | [5] > 200 µM | [6] 104 µM | [7] 34.1 µM | [8] 180 µM | [9] > 200 µM | [10] 157 µM | [11] 81.8 µM | [12] > 200 µM | [13] > 200 µM | [14] 189 µM | [15] 185 µM | [16] > 200 µM | [17] 11 µM | [18] 25 µM | [19] 83.2 µM

c1cncc(CSc2ncnc3[nH]cnc23)c1
inactive: [1] > 100 µM | [2] > 100 µM | [3] > 100 µM | [20] > 100 µM | [4] > 100 µM | [5] > 100 µM | [6] > 100 µM | [7] > 100 µM | [8] > 100 µM | [9] > 100 µM | [10] > 100 µM | [11] > 100 µM | [12] > 100 µM | [13] > 100 µM | [14] > 100 µM | [16] > 100 µM | [17] > 100 µM | [18] > 100 µM | [19] > 100 µM

C1CSCCSCCS1
inactive: [1] > 100 µM | [2] > 100 µM | [3] > 100 µM | [20] > 100 µM | [4] > 100 µM | [5] > 100 µM | [6] > 100 µM | [7] > 100 µM | [8] > 100 µM | [9] > 100 µM | [10] > 100 µM | [12] > 100 µM | [13] > 100 µM | [14] > 100 µM | [15] > 100 µM | [16] > 100 µM | [17] > 100 µM | [18] > 100 µM | [19] > 100 µM

CN(C)/C=N/C1CCC(C(C)(C)C)CC1 (stereo unspecified)
inactive: [1] 18.5 µM | [2] 17.3 µM | [3] 24.9 µM | [20] 14.8 µM | [4] 16 µM | [5] 15.5 µM | [6] 21.5 µM | [8] 17.6 µM | [9] 27.9 µM | [10] 13.6 µM | [11] 18.4 µM | [12] 16.6 µM | [13] 17.7 µM | [14] 14.5 µM | [16] 28.4 µM | [17] 17.4 µM | [18] 17.7 µM | [19] 16.3 µM

COc1cc(C(=O)OCCn2[nH]c(-c3ccc(Cl)cc3)nc2=S)cc(OC)c1OC
inactive: [1] 31.3 µM | [2] > 100 µM | [3] 23.6 µM | [20] 56.4 µM | [4] > 100 µM | [5] 27.5 µM | [7] > 100 µM | [8] 38.3 µM | [9] > 100 µM | [10] > 100 µM | [11] 45.5 µM | [12] 27.7 µM | [13] 57 µM | [14] 51.3 µM | [16] 34.3 µM | [17] 44.7 µM | [18] 91.8 µM | [19] 1.3 µM

CCOP(=O)(CC1CC(O)(CNc2cc(Cl)nc(N)n2)C1)OCC (stereo unspecified)
inactive: [1] > 100 µM | [2] > 100 µM | [3] > 100 µM | [20] > 100 µM | [4] > 100 µM | [5] > 100 µM | [6] > 100 µM | [7] > 100 µM | [9] > 100 µM | [10] > 100 µM | [11] > 100 µM | [12] > 100 µM | [13] > 100 µM | [14] > 100 µM | [15] > 100 µM | [16] > 100 µM | [17] > 100 µM | [18] > 100 µM | [19] > 100 µM

O=C1OS2(OC(=O)c3cccc4cccc2c34)c2ccccc21 (stereo unspecified)
inactive: [1] > 100 µM | [2] > 100 µM | [3] > 100 µM | [4] > 100 µM | [5] > 100 µM | [6] > 100 µM | [7] > 100 µM | [8] > 100 µM | [9] > 100 µM | [10] > 100 µM | [11] > 100 µM | [12] > 100 µM | [13] > 100 µM | [14] > 100 µM | [15] > 100 µM | [16] > 100 µM | [17] > 100 µM | [18] > 100 µM | [19] > 100 µM
